This note sets out measurements from BindingDB's records for PubMed 1513320 (Synaptic Pharmaceutical, 1992).

5-hydroxytryptamine receptor 1E, sequence (P28566 whole entry): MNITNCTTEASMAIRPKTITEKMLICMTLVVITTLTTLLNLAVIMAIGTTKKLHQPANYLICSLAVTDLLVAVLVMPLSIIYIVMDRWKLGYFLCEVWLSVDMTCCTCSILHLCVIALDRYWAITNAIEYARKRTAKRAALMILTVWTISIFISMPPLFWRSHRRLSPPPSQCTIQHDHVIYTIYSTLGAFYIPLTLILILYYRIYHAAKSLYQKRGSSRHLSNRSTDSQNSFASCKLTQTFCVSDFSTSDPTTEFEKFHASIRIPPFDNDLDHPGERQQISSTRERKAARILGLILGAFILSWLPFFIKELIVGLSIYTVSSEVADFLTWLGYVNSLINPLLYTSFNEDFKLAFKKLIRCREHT

The experiment has as its target 5-hydroxytryptamine receptor 1E (Homo sapiens, UniProt P28566).
With `O=C(c1ccc(F)cc1)C1CCN(CCn2c(=O)[nH]c3ccccc3c2=O)CC1` [3-(2-{4-[(4-fluorophenyl)carbonyl]piperidin-1-yl}ethyl)-1,2,3,4-tetrahydroquinazoline-2,4-dione], the inhibitory constant (Ki) – broadly, the dissociation constant of the complex between target and ligand, obtained from inhibition or displacement – is > 10 µM.

For `Cn1cc(CCN)c2cc(O)ccc21` [5-HT,omega-N-Me], the Ki amounted to 0.121 µM.

`CC(CO)NC(=O)C1C=C2c3cccc4[nH]cc(c34)CC2N(C)C1` (stereo not drawn) [CAS_60-79-7]: the affinity, expressed as Ki, was 0.088 µM.

With `CCC(=O)c1ccc(N)cc1` [CAS_6270], the Ki was > 10 µM.

Consider `CC(C)NCC(O)COc1cccc2[nH]ccc12` (stereo not drawn) [LB-46], for which the inhibitory constant (Ki) is > 10 µM.

`COc1cc(N)c(Cl)cc1C(=O)NC1CN2CCC1CC2` (stereo not drawn) [ZACOPRIDE,R]: the Ki is > 10 µM.

For the molecule `NCCc1c[nH]c2ccc(C(N)=O)cc12` [[3H]-5-carboxamidotryptamine], the Ki was > 10 µM.

As to `COC(=O)[C@@H]1[C@H]2C[C@H]3c4[nH]c5ccccc5c4CCN3C[C@@H]2CC[C@@H]1O` [yohimbic acid methyl ester], the Ki is 3.43 µM.
